In PubChem BioAssay (NCI):
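Values below derive from 48-hour exposures of cells grown in 96-well plates, with endpoints linearly interpolated between the two concentrations bracketing the appropriate inhibition level. GI50 marks 50% less growth. TGI denotes the concentration required for complete inhibition of growth.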

How the values were obtained:
Experiment in all cases: NCI anticancer screen, dose series, 48 h
OVCAR-5 ovarian = tested on: OVCAR-5 ovarian
KM12 colon = tested on: KM12 colon
NCI-H23 lung = tested on: NCI-H23 lung
HCT-116 colon = tested on: HCT-116 colon
NCI-H226 lung = tested on: NCI-H226 lung
SN12C renal = tested on: SN12C renal
HCC-2998 colon = tested on: HCC-2998 colon
DU-145 prostate = tested on: DU-145 prostate
SW-620 colon = tested on: SW-620 colon
SNB-75 CNS = tested on: SNB-75 CNS

Row | SMILES | GI50 (OVCAR-5 ovarian) [µM] | TGI (OVCAR-5 ovarian) [µM] | GI50 (KM12 colon) [µM] | TGI (KM12 colon) [µM] | GI50 (NCI-H23 lung) [µM] | TGI (NCI-H23 lung) [µM] | GI50 (HCT-116 colon) [µM] | TGI (HCT-116 colon) [µM] | GI50 (NCI-H226 lung) [µM] | TGI (NCI-H226 lung) [µM] | GI50 (SN12C renal) [µM] | TGI (SN12C renal) [µM] | GI50 (HCC-2998 colon) [µM] | TGI (HCC-2998 colon) [µM] | GI50 (DU-145 prostate) [µM] | TGI (DU-145 prostate) [µM] | GI50 (SW-620 colon) [µM] | TGI (SW-620 colon) [µM] | GI50 (SNB-75 CNS) [µM] | TGI (SNB-75 CNS) [µM]
1 | CC(C)[C@@H](CS(=O)(=O)C(C)C)N1C(=O)[C@@](C)(CC(=O)O)C[C@H](c2cccc(Cl)c2)[C@H]1c1ccc(Cl)cc1 | 25.7 | > 100 | 16 | > 51.6 | 17 | 56.8 | 0.454 | 17.2 | 0.193 | 0.422 | 19.8 | > 70.5 | 16.7 | 37.7 | 21.8 | > 100 | 25.5 | > 100 | 12.2 | > 85.8
2 | COc1ccc(C(=O)N/N=C/c2ccc(O)cc2O)cc1Nc1ccnc(C(F)(F)F)c1 | 1.16 | 33 | 1.82 | 13.9 | 2.39 | 20.3 | 0.354 | 8.77 | 1.39 | 11.6 | 1.15 | > 47 | 0.513 | 22.1 | 0.622 | 15.2 | 1.16 | 24.2 | 2.22 | 49.8
3 | Cc1[nH]nc(C(=O)Nc2n[nH]c3ccccc23)c1[N+](=O)[O-] | > 100 | > 100 | > 100 | > 100 | > 66.9 | > 100 | > 100 | > 100 | > 100 | > 100 | > 100 | > 100 | > 100 | > 100 | > 79.7 | > 100 | > 100 | > 100 | 64.1 | > 100
4 | CCc1nc(N)nc(N)c1-c1ccc(Cl)c(N=NN(C)C)c1 | – | > 100 | – | > 97.3 | – | > 100 | – | > 75.1 | – | > 100 | – | > 100 | – | 62.9 | – | > 100 | – | > 100 | – | > 100
5 | C=C(C(=O)OC)[C@@H]1C[C@@H](O)[C@]2(C)CC/C=C(\C)CCC[C@H](C)[C@H](O)C1O2 | > 100 | > 100 | 41 | > 100 | 80.6 | > 100 | 21.1 | 58 | 86.7 | > 100 | 77.9 | > 100 | 73 | > 100 | 45.5 | > 100 | 42.2 | > 100 | > 100 | > 100
6 | O=C1C(=O)c2c(nc3ncccn23)-c2ccccc21 | 0.397 | 0.852 | 0.678 | 1.9 | 0.193 | 0.432 | 0.184 | 0.379 | 0.493 | 1.25 | 0.173 | 0.325 | 0.408 | 0.935 | 0.181 | 0.336 | 0.214 | 0.461 | 0.378 | 0.793
7 | c1ccc2c(c1)ccc1c3ccccc3ccc21 | > 50 | > 50 | > 50 | > 50 | > 50 | > 50 | > 50 | > 50 | > 50 | > 50 | > 50 | > 50 | > 50 | > 50 | > 50 | > 50 | > 50 | > 50 | > 50 | > 50
8 | Clc1ccc(-c2cn(-c3ccccc3)c(-c3ccccc3)n2)c(Cl)c1 | > 16 | > 45.1 | 0.932 | 2.02 | > 16.2 | > 50 | 1.09 | 2.66 | > 26 | > 50 | 4.09 | > 30.1 | – | > 25.5 | 0.892 | 2.09 | 1.01 | 2.07 | 0.864 | 2.2
9 | N#Cc1ccc2oc3ccc(C#N)cc3c(=O)c2c1 | – | 34.5 | – | > 100 | – | 51.1 | – | > 100 | – | 77.5 | – | > 100 | – | > 100 | – | > 100 | – | > 100 | – | 58.6
10 | N#CC(=S)Nc1ccc(F)cc1 | – | > 100 | – | > 100 | – | > 100 | – | > 100 | – | > 100 | – | > 100 | – | > 100 | – | > 100 | – | > 100 | – | > 100
11 | COc1ccc2c(c1)C(=O)c1c-2n(CCCCl)c(=O)c2cc(N(C)C)ccc12 | > 100 | > 100 | 3.56 | > 100 | > 100 | > 100 | 43.9 | > 100 | 54.7 | > 100 | 49.8 | > 100 | > 100 | > 100 | > 100 | > 100 | > 100 | > 100 | 21.3 | 69.2
12 | O=C(Nc1ccccc1F)c1ccc(NC2=C(Cl)C(=O)N(Cc3ccccc3)C2=O)cc1 | 16.6 | 30.2 | 14.8 | 34.3 | 13 | 25.7 | 8.4 | 20.6 | 11.2 | 25.2 | 1.98 | 7.93 | 15.7 | 29.1 | 2.11 | 4.34 | 3.29 | 9.93 | 16.5 | 30
13 | C=C1C(=O)O[C@H]2[C@H]1CC/C(COC(=O)C(=O)c1cn(C)c3ccc(OC)cc13)=C\CC[C@@]1(C)O[C@@H]21 | 6.12 | 13.6 | 6.41 | 13.3 | 6.44 | 12.4 | 3.61 | 7.38 | 5.45 | 10.1 | 6.1 | 12.8 | 5.14 | 9.72 | 6.67 | 15.5 | 3.53 | 14.5 | 6.69 | 11.8
